From PMC10380194, “Conferring High IAA Productivity on Low-IAA-Producing Organisms with PonAAS2, an Aromatic Aldehyde Synthase of a Galling Sawfly, and Identification of Its Inhibitor” (Insects, 2023)

Tests used:
PonAAS2 = target: T1, PonAAS2; assay: enzyme inhibition of Trp→IAAld conversion, Lineweaver-Burk kinetics (IC50 […]); type: biochemical, Pontania sp.
T1 construct: recombinant, fusion protein with trigger factor (pCOLD TF)

PonAAS1 = target: T2, PonAAS1; assay: enzyme inhibition of 5-HTrp→serotonin conversion, dose-response; type: biochemical, Pontania sp.
T2 construct: recombinant, fusion protein with trigger factor (pCOLD TF)

- Ki (PonAAS2): 0.2 µM
- IC50 (PonAAS1): ~20 µM
SMILES: Oc1ccccc1-c1nc(-c2ccc3c(c2)CCO3)n[nH]1 [HTS10550, 2-[3-(2,3-dihydro-1-benzofuran-5-yl)-1H-1,2,4-triazol-5-yl]phenol]
